pIC50: −log10 of the molar value. Active and inactive are the calls of the source. No cut-off for these calls is given here.
Experiments:
[1] = system: SW480; test: Cytotoxicity against Homo sapiens (human) SW480 cells after 72 hr by MTT assay; type: functional, cell-based; details: SW480, 72 h
[2] = system: A549; test: Cytotoxicity against Homo sapiens (human) A549 cells after 72 hr by MTT assay; type: functional, cell-based; details: A549, 72 h
[3] = system: KB; test: Cytotoxicity against Homo sapiens (human) KB cells after 72 hr by MTT assay; type: functional, cell-based
[4] = system: Leishmania; test: Antileishmanial activity against Leishmania promastigotes; type: functional, organism-based
[5] = Antiproliferative activity against Homo sapiens (human) monocytes; type: cell-based; details: Monocyte
[6] = system: KB; test: Induction of apoptosis in Homo sapiens (human) KB cells assessed as early apoptic cells with nuclear condensation at 5 to 10 uM after 72 hr using AO/EB staining by fluorescence microscopy; type: functional, cell-based
[7] = system: KB; test: Induction of apoptosis in Homo sapiens (human) KB cells assessed as appearance of apoptotic bodies n at 5 to 10 uM after 72 hr using AO/EB staining by fluorescence microscopy; type: functional, cell-based
[8] = system: KB; test: Induction of apoptosis in Homo sapiens (human) KB cells assessed as increase in cleaved caspase 3 level after 72 hr by Western blot analysis; type: functional, cell-based
[9] = system: KB; test: Induction of apoptosis in Homo sapiens (human) KB cells assessed as nuclear fragmentation at 5 to 10 uM after 72 hr using AO/EB staining by fluorescence microscopy; type: functional, cell-based
[10] = system: KB; test: Induction of apoptosis in Homo sapiens (human) KB cells assessed as nuclear condensation at 5 to 10 uM after 72 hr using Hoechst/PI staining by fluorescence microscopy; type: functional, cell-based
[11] = system: KB; test: Induction of apoptosis in Homo sapiens (human) KB cells assessed as upregulation of bax expression at 5 to 15 uM after 72 hr by Western blot analysis; type: functional, cell-based
[12] = system: KB; test: Induction of apoptosis in Homo sapiens (human) KB cells assessed as downregulation of bcl2 expression at 5 to 15 uM after 72 hr by Western blot analysis; type: functional, cell-based

| SMILES | pIC50 [1] | pIC50 [2] | pIC50 [3] | further results |
| --- | --- | --- | --- | --- |
| O=C1OCc2c1c(-c1ccc3c(c1)OCO3)c1cc3c(cc1c2O)OCO3 [TAIWANIN E] | < 4.00 | 4.27 | 4.71 |  |
| COc1cc(OC)cc(-c2c3c(c(O)c4cc5c(cc24)OCO5)COC3=O)c1 | < 4.00 | < 4.00 | 4.48 |  |
| COc1cc([C@@H]2c3cc4c(cc3[C@@H](O[C@@H]3O[C@@H]5CO[C@@H](C)O[C@H]5[C@H](O)[C@H]3O)[C@H]3COC(=O)[C@H]23)OCO4)cc(OC)c1O [ETOPOSIDE] | 5.19 | 5.41 | 5.08 |  |
| COc1cc(-c2c3c(c(O)c4cc5c(cc24)OCO5)COC3=O)cc(OC)c1OC [DEHYDROPODOPHYLLOTOXIN] | < 4.00 | 3.97 | 4.54 |  |
| COc1ccc(-c2c3c(c(O)c4cc5c(cc24)OCO5)COC3=O)cc1 | < 4.00 | 4.45 | < 4.00 |  |
| O=C1OCc2c1c(-c1ccccc1)c1cc3c(cc1c2O)OCO3 | < 4.00 | < 4.00 | < 4.00 |  |
| COc1cc2c(O)c3c(c(-c4ccc5c(c4)OCO5)c2cc1OC)C(=O)OC3 [DIPHYLLIN] | 5.47 | 5.10 | 5.28 | pIC50 [4]: 4.84; pIC50 [5]: 4.45 |
| Cc1ccc(-c2c3c(c(O)c4cc5c(cc24)OCO5)COC3=O)cc1 | 5.40 | 4.52 | 4.72 | Activity [6]: Active; Activity [7]: Active; Activity [8]: Dose-dependent effect; Activity [9]: Active; Activity [10]: Active; Activity [11]: Active; Activity [12]: Active |
| COc1ccccc1-c1c2c(c(O)c3cc4c(cc13)OCO4)COC2=O | 4.68 | < 4.00 | < 4.00 |  |
| COc1ccc(-c2c3c(c(O)c4cc5c(cc24)OCO5)COC3=O)cc1OC | < 4.00 | 4.40 | 4.34 |  |
| COc1cccc(-c2c3c(c(O)c4cc5c(cc24)OCO5)COC3=O)c1 | < 4.00 | 4.16 | < 4.00 |  |
| COc1ccc(OC)c(-c2c3c(c(O)c4cc5c(cc24)OCO5)COC3=O)c1 | < 4.00 | < 4.00 | < 4.00 |  |
